# Reference: patent publication US11078215B2, “Crystalline forms of lorlatinib maleate” (Pfizer Inc., priority 2016, dated 2021)
# Where a name gives a salt, the structure may show the parent alone.
# Assays:
# [1] = Physical stability of Form 1 drug product vs. acetic acid solvate drug product; conditions: drug product
# Text: The physical stabilities of Form 1 and lorlatinib acetic acid solvate as drug product were investigated under a variety of conditions.
# [2] = Slurry experiments, thermodynamic stability of lorlatinib maleate hydrate (Form 2) in a variety of solvent systems; assay type: physicochemical
# Procedure: The thermodynamic stability of Form 2 was further assessed in variety of solvent systems at temperatures of 5° C. to 40° C. as shown in Table 11. Suspensions of Form 2 were prepared under the indicated conditions and equilibrated for 2 weeks. Resultant solids were analyzed by PXRD. […] Formation of new materials in ethanol and methanol is believed to be a solvated form.
smiles,measurement,setting,value
"CC(=O)O.C[C@H]1Oc2cc(cnc2N)-c2c(nn(C)c2C#N)CN(C)C(=O)c2ccc(F)cc21 [lorlatinib acetic acid solvate, reference compound]","impurity (solid phase impurity), physical stability of drug product","[1]; 50° C./75% RH, 2 weeks",~30% impurity
same,"impurity (solid phase impurity), physical stability of drug product","[1]; 70° C./10% RH, 3 weeks",~80% impurity
same,"impurity (solid phase impurity), physical stability of drug product","[1]; 70° C./40% RH, 2 weeks",~80% impurity
same,"impurity (solid phase impurity), physical stability of drug product","[1]; 70° C./75% RH, 1 week",~80% impurity
"C[C@H]1Oc2cc(cnc2N)-c2c(nn(C)c2C#N)CN(C)C(=O)c2ccc(F)cc21 [lorlatinib maleate hydrate (Form 2), (10R)-7-amino-12-fluoro-2,10,16-trimethyl-15-oxo-10,15,16,17-tetrahydro-2H-8,4-(metheno)pyrazolo[4,3-h][2,5,11]benzoxadiazacyclotetradecine-3-carbonitrile (PF-06463922) Maleate Hydrate (Form 2)]","Slurry output, solid form by PXRD","[2]; 1,4-dioxane, Aw 0, 5° C., 2 weeks",Form 2
same,"Slurry output, solid form by PXRD","[2]; 1,4-dioxane, Aw 0, 40° C., 2 weeks",Form 2
same,"Slurry output, solid form by PXRD","[2]; 1,4-dioxane, Aw 0, RT, 2 weeks",Form 2
same,"Slurry output, solid form by PXRD","[2]; EtOAc, Aw 0, 5° C., 2 weeks",Form 2
same,"Slurry output, solid form by PXRD","[2]; EtOAc, Aw 0, 40° C., 2 weeks",Form 2
same,"Slurry output, solid form by PXRD","[2]; EtOAc, Aw 0, RT, 2 weeks",Form 2
same,"Slurry output, solid form by PXRD","[2]; EtOAc/water, Aw 0.1, 5° C., 2 weeks",Form 2
same,"Slurry output, solid form by PXRD","[2]; EtOAc/water, Aw 0.1, 40° C., 2 weeks",Form 2
same,"Slurry output, solid form by PXRD","[2]; EtOAc/water, Aw 0.1, RT, 2 weeks",Form 2
same,"Slurry output, solid form by PXRD","[2]; EtOAc/water, Aw 0.3, 5° C., 2 weeks",Form 2
same,"Slurry output, solid form by PXRD","[2]; EtOAc/water, Aw 0.3, 40° C., 2 weeks",Form 2
same,"Slurry output, solid form by PXRD","[2]; EtOAc/water, Aw 0.3, RT, 2 weeks",Form 2
same,"Slurry output, solid form by PXRD","[2]; EtOAc/water, Aw 0.75, 5° C., 2 weeks",Form 2
same,"Slurry output, solid form by PXRD","[2]; EtOAc/water, Aw 0.75, 40° C., 2 weeks",Form 2
same,"Slurry output, solid form by PXRD","[2]; EtOAc/water, Aw 0.75, RT, 2 weeks",Form 2
same,"Slurry output, solid form by PXRD","[2]; Ethanol, Aw 0, 5° C., 2 weeks",Form 2
same,"Slurry output, solid form by PXRD","[2]; Ethanol, Aw 0, 40° C., 2 weeks",solvate
same,"Slurry output, solid form by PXRD","[2]; MeOAc, Aw 0, 5° C., 2 weeks",Form 2
same,"Slurry output, solid form by PXRD","[2]; MeOAc, Aw 0, 40° C., 2 weeks",Form 2
same,"Slurry output, solid form by PXRD","[2]; MeOAc, Aw 0, RT, 2 weeks",Form 2
same,"Slurry output, solid form by PXRD","[2]; TFE, Aw 0, 5° C., 2 weeks",Form 2
same,"Slurry output, solid form by PXRD","[2]; TFE, Aw 0, 40° C., 2 weeks",amorphous
same,"Slurry output, solid form by PXRD","[2]; TFE, Aw 0, RT, 2 weeks",Form 2
same,"Slurry output, solid form by PXRD","[2]; acetone, Aw 0, 5° C., 2 weeks",Form 2
same,"Slurry output, solid form by PXRD","[2]; acetone, Aw 0, 40° C., 2 weeks",Form 2
same,"Slurry output, solid form by PXRD","[2]; acetone, Aw 0, RT, 2 weeks",Form 2
same,"Slurry output, solid form by PXRD","[2]; acetone/water, Aw 0.1, 5° C., 2 weeks",Form 2
same,"Slurry output, solid form by PXRD","[2]; acetone/water, Aw 0.1, 40° C., 2 weeks",Form 2
same,"Slurry output, solid form by PXRD","[2]; acetone/water, Aw 0.1, RT, 2 weeks",Form 2
same,"Slurry output, solid form by PXRD","[2]; acetone/water, Aw 0.3, 5° C., 2 weeks",Form 2
same,"Slurry output, solid form by PXRD","[2]; acetone/water, Aw 0.3, 40° C., 2 weeks",Form 2
same,"Slurry output, solid form by PXRD","[2]; acetone/water, Aw 0.3, RT, 2 weeks",Form 2
same,"Slurry output, solid form by PXRD","[2]; acetone/water, Aw 0.75, 5° C., 2 weeks",Form 2
same,"Slurry output, solid form by PXRD","[2]; acetone/water, Aw 0.75, 40° C., 2 weeks",Form 2
same,"Slurry output, solid form by PXRD","[2]; acetone/water, Aw 0.75, RT, 2 weeks",Form 2
same,"Slurry output, solid form by PXRD","[2]; acetone/water, Aw 0.9, 5° C., 2 weeks",Form 2
same,"Slurry output, solid form by PXRD","[2]; acetone/water, Aw 0.9, RT, 2 weeks",Form 2
same,"Slurry output, solid form by PXRD","[2]; acetonitrile, Aw 0, 5° C., 2 weeks",Form 2
same,"Slurry output, solid form by PXRD","[2]; acetonitrile, Aw 0, 40° C., 2 weeks",Form 2
same,"Slurry output, solid form by PXRD","[2]; acetonitrile, Aw 0, RT, 2 weeks",Form 2
same,"Slurry output, solid form by PXRD","[2]; methanol, Aw 0, 5° C., 2 weeks",Form 2
same,"Slurry output, solid form by PXRD","[2]; methanol/water, Aw 0.1, 5° C., 2 weeks",Form 2
same,"Slurry output, solid form by PXRD","[2]; methanol/water, Aw 0.1, 40° C., 2 weeks",solvate
same,"Slurry output, solid form by PXRD","[2]; methanol/water, Aw 0.1, RT, 2 weeks",Form 2
same,"Slurry output, solid form by PXRD","[2]; methanol/water, Aw 0.3, 5° C., 2 weeks",Form 2
same,"Slurry output, solid form by PXRD","[2]; methanol/water, Aw 0.3, 40° C., 2 weeks",solvate
same,"Slurry output, solid form by PXRD","[2]; methanol/water, Aw 0.3, RT, 2 weeks",Form 2
same,"Slurry output, solid form by PXRD","[2]; methanol/water, Aw 0.75, 5° C., 2 weeks",Form 2
same,"Slurry output, solid form by PXRD","[2]; methanol/water, Aw 0.75, 40° C., 2 weeks",Form 2
same,"Slurry output, solid form by PXRD","[2]; methanol/water, Aw 0.75, RT, 2 weeks",Form 2
same,Conversion to Form 1 in slurry (summary),"[2]; variety of solvent systems, 5° C. to 40° C., 2 weeks",No conversion to Form 1 was detected
same,Thermodynamic stability (summary),[2]; wide range of water activities and solvent conditions,thermodynamically stable
